SMILES strings stand for the structures. Where a name gives a salt, the structure may show the parent alone.

The target in test [1] is T1, EZH2 within the PRC2 complex (Homo sapiens (Human), UniProt Q15910). The test can be described thus: EZH2 methyltransferase SPA, mononucleosome substrate (Assay Protocol 1). Type of test: biochemical. Conditions: HeLa mononucleosome substrate, 3H-SAM, ≦10 nM approaches limit of detection. Here is the method:
Compounds contained herein were evaluated for their ability to inhibit the methyltransferase activity of EZH2 within the PRC2 complex. Human PRC2 complex was prepared by co-expressing each of the 5 member proteins (FLAG-EZH2, EED, SUZ12, RbAp48, AEBP2) in Sf9 cells followed by co-purification. Enzyme activity was measured in a scintillation proximity assay (SPA) where a tritiated methyl group is transferred from 3H-SAM to a lysine residue on Histone H3 of a mononucleosome, purified from HeLa cells. Mononucleosomes were captured on SPA beads and the resulting signal is read on a ViewLux plate reader.
(§1) Part A. Compound Preparation
• 1. Prepare 10 mM stock of compounds from solid in 100% DMSO. • 2. Set up an 11-point serial dilution (1:3 dilution, top concentration 10 mM) in 100% DMSO for each test compound in a 384 well plate leaving columns 6 and 18 for DMSO controls. • 3. Dispense 100 nL of compound from the dilution plate into reaction plates (Grenier Bio-One, 384-well, Cat#784075). Part B. Reagent Preparation Prepare the following solutions: • 1. 50 mM Tris-HCl, pH 8: Per 1 L of base buffer, combine 1 M Tris-HCl, pH 8 (50 mL) and distilled water (950 mL). • 2. 1× Assay Buffer: Per 10 mL of 1× Assay Buffer, combine 50 mM Tris-HCl, pH 8 (9958 uL), 1 M MgCl2 (20 uL), 2 M DTT (20 uL), and 10% Tween-20 (2 uL) to provide a final concentration of 50 mM Tris-HCl, pH 8, 2 mM MgCl2, 4 mM DTT, 0.002% Tween-20. • 3. 2× Enzyme Solution: Per 10 mL of 2× Enzyme Solution, combine 1× Assay Buffer and PRC2 complex to provide a final enzyme concentration of 10 nM. • 4. SPA Bead Suspension: Per 1 mL of SPA Bead Suspension, combine PS-PEI coated LEADSeeker beads (40 mg) and H2O (1 mL) to provide a final concentration of 40 mg/mL. • 5. 2× Substrate Solution: Per 10 mL of 2× Substrate Solution, combine 1× Assay Buffer (9728.55 uL), 800 ug/mL mononucleosomes (125 uL), 1 mM cold SAM (4 uL), and 7.02 uM 3H-SAM (142.45 uL; 0.55 mCi/mL) to provide a final concentration of 5 ug/mL nucleosomes, 0.2 uM cold SAM, and 0.05 uM 3H-SAM. • 6. 2.67× Quench/Bead Mixture: Per 10 mL of 2.67× Quench/Bead Mixture, combine ddH2O (9358 uL), 10 mM cold SAM (267 uL), 40 mg/mL Bead Suspension (375 uL) to provide a final concentration of 100 uM cold SAM and 0.5 mg/mL SPA beads. Part C. Assay Reaction in 384-well Grenier Bio-One Plates Compound Addition • 1. Dispense 100 nL/well of 100× Compound to test wells (as noted above). • 2. Dispense 100 nL/well of 100% DMSO to columns 6 & 18 for high and low controls, respectively. Assay • 1. Dispense 5 uL/well of 1× Assay Buffer to column 18 (low control reactions). • 2. Dispense 5 uL/well of 2× Enzyme Solution to columns 1-17, 19-24. • 3. Spin assay plates for ˜1 min at 500 rpm. • 4. Stack the assay plates, covering the top plate. • 5. Incubate the compound/DMSO with the enzyme for 30 min at room temperature. • 6. Dispense 5 uL/well of 2× Substrate Solution to columns 1-24. • 7. Spin assay plates for ˜1 min at 500 rpm. • 8. Stack the assay plates, covering the top plate. • 9. Incubate the assay plates at room temperature for 1 hour. Quench/Bead Addition • 1. Dispense 5 uL/well of the 3× Quench/Bead Mixture to columns 1-24. • 2. Seal the top of each assay plate with adhesive TopSeal. • 3. Spin assay plates for ˜1 min at 500 rpm. • 4. Equilibrate the plates for >20 min. Read plates • 1. Read the assay plates on the Viewlux Plate Reader utilizing the 613 nm emission filter with a 300 s read time.
Reagent addition can be done manually or with automated liquid handler. • The final DMSO concentration in this assay is 1%. • The positive control is in column 6; negative control is in column 18. • Final starting concentration of compounds is 100 µM. Results
(§2) Percent inhibition was calculated relative to the DMSO control for each compound concentration and the resulting values were fit using standard IC50 fitting parameters within the ABASE data fitting software package.

Test [2] concerns the target T1, EZH2 within the PRC2 complex. The test can be described thus: EZH2 methyltransferase SPA, biotinylated histone H3K27 peptide substrate (Assay Protocol 2). Type of test: biochemical. To be noted: 3H-SAM, ≦10 nM approaches limit of detection. Here is the method: Compounds contained herein were evaluated for their ability to inhibit the methyltransferase activity of EZH2 within the PRC2 complex. Human PRC2 complex was prepared by co-expressing each of the 5 member proteins (FLAG-EZH2, EED, SUZ12, RbAp48, AEBP2) in Sf9 cells followed by co-purification. Enzyme activity was measured in a scintillation proximity assay (SPA) where a tritiated methyl group is transferred from 3H-SAM to a lysine residue on a biotinylated, unmethylated peptide substrate derived from histone H3. The peptides were captured on streptavidin-coated SPA beads and the resulting signal was read on a ViewLux plate reader.
as §1
• 4. Prepare 10 mM stock of compounds from solid in 100% DMSO. • 5. Set up an 11-point serial dilution (1:4 dilution, top concentration 10 mM) in 100% DMSO for each test compound in a 384 well plate leaving columns 6 and 18 for DMSO controls. • 6. Dispense 10 nL of compound from the dilution plate into reaction plates (Corning, 384-well polystyrene NBS, Cat#3673). Part B. Reagent Preparation Prepare the following solutions: • 7. 1× Base Buffer, 50 mM Tris-HCl, pH 8, 2 mM MgCl2: Per 1 L of base buffer, combine 1 M Tris-HCl, pH 8 (50 mL), 1 M MgCl2 (2 mL), and distilled water (948 mL). • 8. 1× Assay Buffer: Per 10 mL of 1× Assay Buffer, combine 1× Base Buffer (9.96 mL), 1 M DTT (40 uL), and 10% Tween-20 (1 uL) to provide a final concentration of 50 mM Tris-HCl, pH 8, 2 mM MgCl2, 4 mM DTT, 0.001% Tween-20. • 9. 2× Enzyme Solution: Per 10 mL of 2× Enzyme Solution, combine 1× Assay Buffer (9.99 mL) and 3.24 uM EZH2 5 member complex (6.17 uL) to provide a final enzyme concentration of 1 nM. • 10. SPA Bead Solution: Per 1 mL of SPA Bead Solution, combine Streptavidin coated SPA beads (PerkinElmer, Cat#RPNQ0261, 40 mg) and 1× Assay Buffer (1 mL) to provide a working concentration of 40 mg/mL. • 11. 2× Substrate Solution: Per 10 mL of 2× Substrate Solution, combine 40 mg/mL SPA Bead Solution (375 uL), 1 mM biotinylated histone H3K27 peptide (200 uL), 12.5 uM 3H-SAM (240 uL; 1 mCi/mL), 1 mM cold SAM (57 uL), and 1× Assay Buffer (9.13 mL) to provide a final concentration of 0.75 mg/mL SPA Bead Solution, 10 uM biotinylated histone H3K27 peptide, 0.15 uM 3H-SAM (˜12 uCi/mL 3H-SAM), and 2.85 uM cold SAM. • 12. 2.67× Quench Solution: Per 10 mL of 2.67× Quench Solution, combine 1× Assay Buffer (9.73 mL) and 10 mM cold SAM (267 uL) to provide a final concentration of 100 uM cold SAM. Part C. Assay Reaction in 384-well Grenier Bio-One Plates Compound Addition • 3. Stamp 10 nL/well of 1000× Compound to test wells (as noted above). • 4. Stamp 10 nL/well of 100% DMSO to columns 6 & 18 (high and low controls, respectively). Assay • 10. Dispense 5 uL/well of 1× Assay Buffer to column 18 (low control reactions). • 11. Dispense 5 uL/well of 2× Substrate Solution to columns 1-24 (note: substrate solution should be mixed to ensure homogeneous bead suspension before dispensing into matrix reservoir). • 12. Dispense 5 uL/well of 2× Enzyme Solution to columns 1-17, 19-24. • 13. Incubate the reaction for 60 min at room temperature. Quench • 5. Dispense 6 uL/well of the 2.67× Quench Solution to columns 1-24. • 6. Seal assay plates and spin for ˜1 min at 500 rpm. • 7. Dark adapt plates in the ViewLux instrument for 15-60 min. Read plates • 2. Read the assay plates on the Viewlux Plate Reader utilizing the 613 nm emission filter or clear filter (300 s exposure). Reagent addition can be done manually or with automated liquid handler. Results
as §2

T1 sequence (Q15910 whole entry): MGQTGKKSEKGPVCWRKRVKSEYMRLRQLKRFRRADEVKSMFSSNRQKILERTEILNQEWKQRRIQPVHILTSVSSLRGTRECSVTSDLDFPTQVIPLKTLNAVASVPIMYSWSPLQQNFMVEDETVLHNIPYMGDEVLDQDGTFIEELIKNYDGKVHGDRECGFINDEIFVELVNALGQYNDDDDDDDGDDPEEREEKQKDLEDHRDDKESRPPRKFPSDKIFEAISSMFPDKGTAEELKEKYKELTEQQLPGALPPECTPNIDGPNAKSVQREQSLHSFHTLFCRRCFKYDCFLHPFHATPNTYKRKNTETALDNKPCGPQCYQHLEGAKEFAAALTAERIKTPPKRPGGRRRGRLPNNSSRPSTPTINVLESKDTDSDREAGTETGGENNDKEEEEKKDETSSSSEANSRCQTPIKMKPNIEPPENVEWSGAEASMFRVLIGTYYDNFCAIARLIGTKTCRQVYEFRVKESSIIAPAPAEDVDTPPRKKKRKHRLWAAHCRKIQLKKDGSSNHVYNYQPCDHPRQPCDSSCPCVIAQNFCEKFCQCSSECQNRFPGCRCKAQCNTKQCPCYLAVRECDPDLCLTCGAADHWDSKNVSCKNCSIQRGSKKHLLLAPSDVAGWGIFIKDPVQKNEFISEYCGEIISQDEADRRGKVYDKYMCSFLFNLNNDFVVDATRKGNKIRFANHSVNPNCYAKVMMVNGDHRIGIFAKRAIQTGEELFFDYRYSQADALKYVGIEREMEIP
T1 sequence (O75530 whole entry partner): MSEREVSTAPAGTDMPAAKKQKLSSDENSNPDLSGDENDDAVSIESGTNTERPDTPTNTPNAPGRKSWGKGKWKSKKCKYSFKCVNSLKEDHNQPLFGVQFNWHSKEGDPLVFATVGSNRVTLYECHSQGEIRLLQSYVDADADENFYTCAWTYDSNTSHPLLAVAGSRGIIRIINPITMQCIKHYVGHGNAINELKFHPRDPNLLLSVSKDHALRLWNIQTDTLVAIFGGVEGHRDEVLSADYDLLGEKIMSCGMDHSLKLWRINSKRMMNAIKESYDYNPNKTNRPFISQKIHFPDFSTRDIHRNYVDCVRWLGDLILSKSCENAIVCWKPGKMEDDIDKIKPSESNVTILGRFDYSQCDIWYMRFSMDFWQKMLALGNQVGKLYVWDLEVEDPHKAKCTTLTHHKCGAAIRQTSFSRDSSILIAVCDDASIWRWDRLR
T1 sequence (Q15022 whole entry partner): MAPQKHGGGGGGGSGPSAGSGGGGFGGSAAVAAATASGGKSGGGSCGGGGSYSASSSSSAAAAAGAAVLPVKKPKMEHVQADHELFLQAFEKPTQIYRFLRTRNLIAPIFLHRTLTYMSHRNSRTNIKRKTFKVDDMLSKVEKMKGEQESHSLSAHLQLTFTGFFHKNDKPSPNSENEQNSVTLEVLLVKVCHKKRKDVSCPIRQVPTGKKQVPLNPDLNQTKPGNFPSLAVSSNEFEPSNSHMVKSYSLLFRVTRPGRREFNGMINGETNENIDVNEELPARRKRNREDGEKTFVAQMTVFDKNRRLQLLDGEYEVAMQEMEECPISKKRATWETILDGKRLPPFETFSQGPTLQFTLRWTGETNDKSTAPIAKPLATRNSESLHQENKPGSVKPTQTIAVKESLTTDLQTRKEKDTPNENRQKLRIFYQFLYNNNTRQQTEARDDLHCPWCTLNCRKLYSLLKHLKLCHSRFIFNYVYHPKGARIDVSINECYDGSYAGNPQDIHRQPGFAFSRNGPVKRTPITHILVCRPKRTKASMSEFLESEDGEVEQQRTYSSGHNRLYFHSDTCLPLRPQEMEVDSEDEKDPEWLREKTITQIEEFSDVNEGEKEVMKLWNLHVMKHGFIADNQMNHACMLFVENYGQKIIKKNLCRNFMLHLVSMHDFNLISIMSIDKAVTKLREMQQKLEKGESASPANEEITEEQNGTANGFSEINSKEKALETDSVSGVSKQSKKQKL
T1 sequence (Q09028 whole entry partner): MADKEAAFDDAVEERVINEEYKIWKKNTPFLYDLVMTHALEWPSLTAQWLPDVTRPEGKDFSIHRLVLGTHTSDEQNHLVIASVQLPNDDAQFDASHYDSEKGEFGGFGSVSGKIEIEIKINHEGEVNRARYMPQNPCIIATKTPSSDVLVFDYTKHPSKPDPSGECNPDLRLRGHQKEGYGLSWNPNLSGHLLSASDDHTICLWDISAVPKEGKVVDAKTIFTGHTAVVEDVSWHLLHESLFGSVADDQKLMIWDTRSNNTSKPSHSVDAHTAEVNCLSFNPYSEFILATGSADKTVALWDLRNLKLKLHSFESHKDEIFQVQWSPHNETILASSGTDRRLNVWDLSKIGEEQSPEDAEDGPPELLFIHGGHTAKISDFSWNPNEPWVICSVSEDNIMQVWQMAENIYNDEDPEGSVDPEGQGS
T1 sequence (Q6ZN18 whole entry partner): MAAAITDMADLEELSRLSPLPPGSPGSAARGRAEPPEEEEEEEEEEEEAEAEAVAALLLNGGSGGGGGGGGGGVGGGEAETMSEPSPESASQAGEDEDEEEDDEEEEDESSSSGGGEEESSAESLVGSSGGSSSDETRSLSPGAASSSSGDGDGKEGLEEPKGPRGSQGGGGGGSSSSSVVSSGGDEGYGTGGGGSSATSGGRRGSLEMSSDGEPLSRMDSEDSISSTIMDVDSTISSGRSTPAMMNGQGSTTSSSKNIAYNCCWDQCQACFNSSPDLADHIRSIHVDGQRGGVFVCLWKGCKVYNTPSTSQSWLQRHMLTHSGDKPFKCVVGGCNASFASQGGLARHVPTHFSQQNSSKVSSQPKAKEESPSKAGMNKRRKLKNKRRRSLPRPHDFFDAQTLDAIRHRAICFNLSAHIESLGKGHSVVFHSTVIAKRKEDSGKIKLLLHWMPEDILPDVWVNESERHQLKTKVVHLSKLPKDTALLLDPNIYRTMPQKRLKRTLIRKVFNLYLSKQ

Usually IC50 stands for the point on the concentration scale where inhibition reaches its midpoint. On to `Cc1cc(C)c(CNC(=O)c2scc(OC(C)C)c2C)c(=O)[nH]1` [Example 1, N-((4,6-dimethyl-2-oxo-1,2-dihydropyridin-3-yl)methyl)-4-isopropoxy-3-methylthiophene-2-carboxamide], for which the IC50 in test [1] amounted to 3160 nM; in test [2], 25100 nM.
The corresponding values for `CCN(c1csc(C(=O)NCc2c(C)cc(C)[nH]c2=O)c1C)C1CCOCC1` [Example 2, N-((4,6-Dimethyl-2-oxo-1,2-dihydropyridin-3-yl)methyl)-4-(ethyl(tetrahydro-2H-pyran-4-yl)amino)-3-methylthiophene-2-carboxamide] are 63 nM and 200 nM.
In the case of `CCN(c1c(Cl)sc(C(=O)NCc2c(C)cc(C)[nH]c2=O)c1C)C1CCOCC1` [Example 3, 5-Chloro-N-((4,6-dimethyl-2-oxo-1,2-dihydropyridin-3-yl)methyl)-4-(ethyl(tetrahydro-2H-pyran-4-yl)amino)-3-methylthiophene-2-carboxamide], the values for the IC50 in test [1] and in test [2] were 100 nM and 200 nM, respectively.
For the molecule `CCN(c1csc(C(=O)NCc2c(C)cc(C)[nH]c2=O)c1C)[C@H]1CC[C@H](N(C)C)CC1` [Example 4, N-((4,6-dimethyl-2-oxo-1,2-dihydropyridin-3-yl)methyl)-4-(((trans)-4-(dimethylamino)cyclohexyl)(ethyl)amino)-3-methylthiophene-2-carboxamide], the IC50 in test [1] is 16 nM; in test [2], 25 nM.
The matching figures for `CCN(c1csc(C(=O)NCc2c(C)cc(C)[nH]c2=O)c1C)[C@H]1CC[C@@H](N(C)C)CC1` [Example 5, N-((4,6-dimethyl-2-oxo-1,2-dihydropyridin-3-yl)methyl)-4-(((cis)-4-(dimethylamino)cyclohexyl)(ethyl)amino)-3-methylthiophene-2-carboxamide]: 32 nM and 50 nM.
Molecule `CCC(CCCN1CCN(C)CC1)c1scc(C(=O)NCc2c(C)cc(C)[nH]c2=O)c1C` (stereo not shown) [Example 73, N-((4,6-Dimethyl-2-oxo-1,2-dihydropyridin-3-yl)methyl)-4-methyl-5-(6-(4-methylpiperazin-1-yl)hexan-3-yl)thiophene-3-carboxamide] displayed a concentration for half-maximal inhibition (IC50) in test [2] of 126 nM.
`C/C=C(/CCCN1CCC(N(C)C)CC1)c1scc(C(=O)NCc2c(C)cc(C)[nH]c2=O)c1C` [Example 74, (Z)—N-((4,6-Dimethyl-2-oxo-1,2-dihydropyridin-3-yl)methyl)-5-(6-(4-(dimethylamino)piperidin-1-yl)hex-2-en-3-yl)-4-methylthiophene-3-carboxamide formate]: the IC50 in test [2] stood at 200 nM.
Regarding `CCN(c1sc(-c2ccoc2)c(C(=O)NCc2c(C)cc(C)[nH]c2=O)c1C)C1CCOCC1` [Example 75, N-((4,6-dimethyl-2-oxo-1,2-dihydropyridin-3-yl)methyl)-5-(ethyl(tetrahydro-2H-pyran-4-yl)amino)-2-(furan-3-yl)-4-methylthiophene-3-carboxamide], the IC50 in test [2] is 25 nM.
Same read-out and setting: the result for `CCN(c1sc(-c2ccco2)c(C(=O)NCc2c(C)cc(C)[nH]c2=O)c1C)C1CCOCC1` [Example 76, N-((4,6-dimethyl-2-oxo-1,2-dihydropyridin-3-yl)methyl)-5-(ethyl(tetrahydro-2H-pyran-4-yl)amino)-2-(furan-2-yl)-4-methylthiophene-3-carboxamide] reads 32 nM; that for `CCN(c1sc(-c2ccoc2)c(C(=O)NCc2c(C)cc(C)[nH]c2=O)c1C)[C@H]1CC[C@H](N(C)C)CC1` [Example 77, N-((4,6-dimethyl-2-oxo-1,2-dihydropyridin-3-yl)methyl)-5-(((trans)-4-(dimethylamino)cyclohexyl)(ethyl)amino)-2-(furan-3-yl)-4-methylthiophene-3-carboxamide], 32 nM.
In turn, `CCN(c1sc(-c2cnn(C)c2)c(C(=O)NCc2c(C)cc(C)[nH]c2=O)c1C)C1CCOCC1` [Example 78, N-((4,6-dimethyl-2-oxo-1,2-dihydropyridin-3-yl)methyl)-5-(ethyl(tetrahydro-2H-pyran-4-yl)amino)-4-methyl-2-(1-methyl-1H-pyrazol-4-yl)thiophene-3-carboxamide] showed a half-maximal inhibitory concentration (IC50) in test [2] of 100 nM.

The record behind these values is patent publication US9505745B2, “Enhancer of zeste homolog 2 inhibitors” (GlaxoSmithKline Intellectual Property (No.2) Limited, priority 2013, dated 2016).
